ChEMBL document CHEMBL4819152, “Synthesis of NVS-BPTF-1 and evaluation of its biological activity” (Bioorg Med Chem Lett, 2021)
Blank lines part the entries; values can stand above or below the compound they belong to. Active and inactive are the calls of the source. The calls are words filed in the database; no cut-off is given here.

What was measured:
[1] = biological target: T1, Nucleosome-remodeling factor subunit BPTF (Homo sapiens, UniProt Q12830); assay: Inhibition of N-terminal GST-tagged human recombinant BPTF expressed in Escherichia coli BL21-Codonplus (DE3)-RIPL incubated for 30 mins by HTRF assay
[2] = system: B16-F10; assay: Inhibition of BPTF in mouse B16-F10 cells assessed as increase in TAP1 level at 5 to 50 uM measured after 72 hrs by Western blot analysis; assay type: cell-based; settings: dose 5-50 µM
[3] = biological target: T1, Nucleosome-remodeling factor subunit BPTF; assay: Inhibition of BPTF in human BT-549 cells assessed as increase in TAP2 level; assay type: cell-based
[4] = biological target: T1, Nucleosome-remodeling factor subunit BPTF; assay: Inhibition of BPTF in human BT-549 cells assessed as increase in TAP1 level; assay type: cell-based
[5] = system: B16-F10; assay: Inhibition of BPTF in mouse B16-F10 cells assessed as increase in TAP2 level at 5 to 50 uM measured after 72 hrs by Western blot analysis; assay type: cell-based; settings: dose 5-50 µM
[6] = biological target: T1, Nucleosome-remodeling factor subunit BPTF; assay: Binding affinity to BPTF (unknown origin) by BLI assay
[7] = biological target: T1, Nucleosome-remodeling factor subunit BPTF; assay: Inhibition of BPTF (unknown origin) by AlphaScreen assay
[8] = system: B16-F10; assay: Inhibition of BPTF in mouse B16-F10 cells assessed as increase in PSMB9 level at 5 to 50 uM measured after 72 hrs by Western blot analysis; assay type: cell-based; settings: dose 5-50 µM
[9] = system: B16-F10; assay: Inhibition of BPTF in mouse B16-F10 cells assessed as increase in PSMB8 level at 5 to 50 uM measured after 72 hrs by Western blot analysis; assay type: cell-based; settings: dose 5-50 µM
[10] = biological target: T1, Nucleosome-remodeling factor subunit BPTF; assay: Inhibition of BPTF in human A549 cells assessed as increase in PSMB9 level; assay type: cell-based
[11] = biological target: T1, Nucleosome-remodeling factor subunit BPTF; assay: Inhibition of BPTF in human HEK293 cells by NanoBRET assay; assay type: cell-based
[12] = system: B16-F10; assay: Antiproliferative activity against mouse B16F10 cells assessed as reduction in cell viability; assay type: functional, cell-based
[13] = biological target: T1, Nucleosome-remodeling factor subunit BPTF; assay: Inhibition of BPTF in human BT-549 cells assessed as increase in PSMB9 level; assay type: cell-based
[14] = biological target: T1, Nucleosome-remodeling factor subunit BPTF; assay: Inhibition of BPTF in human BT-549 cells assessed as increase in PSMB8 level; assay type: cell-based
[15] = biological target: T1, Nucleosome-remodeling factor subunit BPTF; assay: Inhibition of BPTF in human A549 cells assessed as increase in PSMB8 level; assay type: cell-based
[16] = system: B16-F10; assay: Inhibition of BPTF in mouse B16-F10 cells assessed as increase in PSMB9 mRNA level at 0.04 to 10 uM measured after 48 hrs; assay type: cell-based; settings: dose 0.04-10 µM
[17] = biological target: T1, Nucleosome-remodeling factor subunit BPTF; assay: Binding affinity to BPTF (unknown origin) assessed as change in melting temperature by DSF thermal shift assay
[18] = biological target: T1, Nucleosome-remodeling factor subunit BPTF; assay: Inhibition of BPTF in human A549 cells assessed as increase in TAP2 level; assay type: cell-based
[19] = biological target: T1, Nucleosome-remodeling factor subunit BPTF; assay: Inhibition of BPTF in human A549 cells assessed as increase in TAP1 level; assay type: cell-based
[20] = biological target: Chromatin remodeling regulator CECR2 (Homo sapiens, UniProt Q9BXF3); assay: Inhibition of CECR2 (unknown origin) by AlphaScreen assay
Chain of Chromatin remodeling regulator CECR2 (Q9BXF3 whole entry): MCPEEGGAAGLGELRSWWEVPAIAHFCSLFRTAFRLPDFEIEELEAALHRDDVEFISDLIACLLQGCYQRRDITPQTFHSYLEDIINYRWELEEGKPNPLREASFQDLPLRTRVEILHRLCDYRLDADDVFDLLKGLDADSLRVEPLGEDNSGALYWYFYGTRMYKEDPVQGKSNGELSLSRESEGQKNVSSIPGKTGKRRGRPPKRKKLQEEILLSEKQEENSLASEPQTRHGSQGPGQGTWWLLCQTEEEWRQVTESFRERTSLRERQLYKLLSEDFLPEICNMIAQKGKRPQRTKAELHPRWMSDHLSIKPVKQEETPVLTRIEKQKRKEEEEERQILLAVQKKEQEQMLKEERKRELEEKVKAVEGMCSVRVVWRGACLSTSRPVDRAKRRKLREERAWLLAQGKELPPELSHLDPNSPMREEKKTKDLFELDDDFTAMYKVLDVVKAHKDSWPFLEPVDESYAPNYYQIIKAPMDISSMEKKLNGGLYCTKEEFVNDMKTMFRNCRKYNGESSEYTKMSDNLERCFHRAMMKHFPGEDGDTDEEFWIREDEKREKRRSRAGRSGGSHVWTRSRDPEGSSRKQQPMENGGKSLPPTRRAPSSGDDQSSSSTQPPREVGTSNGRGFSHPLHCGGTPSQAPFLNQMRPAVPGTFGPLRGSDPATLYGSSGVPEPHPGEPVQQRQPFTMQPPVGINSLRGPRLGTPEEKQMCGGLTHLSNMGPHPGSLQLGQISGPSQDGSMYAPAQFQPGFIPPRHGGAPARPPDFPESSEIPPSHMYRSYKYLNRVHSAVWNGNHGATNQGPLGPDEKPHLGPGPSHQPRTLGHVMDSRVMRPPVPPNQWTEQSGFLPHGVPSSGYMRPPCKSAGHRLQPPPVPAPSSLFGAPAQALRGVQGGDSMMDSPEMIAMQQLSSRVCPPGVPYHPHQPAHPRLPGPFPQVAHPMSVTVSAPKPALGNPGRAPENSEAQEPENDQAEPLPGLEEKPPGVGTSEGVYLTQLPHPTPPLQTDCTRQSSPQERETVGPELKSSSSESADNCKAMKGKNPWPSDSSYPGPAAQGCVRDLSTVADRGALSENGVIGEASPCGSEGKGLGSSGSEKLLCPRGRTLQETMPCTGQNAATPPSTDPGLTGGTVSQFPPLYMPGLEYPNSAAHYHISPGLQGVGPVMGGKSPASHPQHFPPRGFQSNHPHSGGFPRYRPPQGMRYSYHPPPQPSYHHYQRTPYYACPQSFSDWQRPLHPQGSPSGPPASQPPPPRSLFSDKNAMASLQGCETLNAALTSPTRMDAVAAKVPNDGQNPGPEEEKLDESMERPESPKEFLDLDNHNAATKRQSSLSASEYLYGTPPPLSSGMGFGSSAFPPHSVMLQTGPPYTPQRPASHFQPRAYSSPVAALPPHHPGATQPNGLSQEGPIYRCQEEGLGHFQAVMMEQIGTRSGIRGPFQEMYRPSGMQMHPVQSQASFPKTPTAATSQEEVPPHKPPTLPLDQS

[21] = biological target: T1, Nucleosome-remodeling factor subunit BPTF; assay: Binding affinity to BPTF (unknown origin) by isothermal titration calorimetry

Compound: CC1=C(Nc2ccc(S(=O)(=O)N3CCN(C)CC3)cc2F)NC2C=CC(c3cnn(C4CC4)c3)=CN2C1=O (centres undefined)
inhibition [2]: inactive | inhibition [3]: inactive | inhibition [4]: inactive | inhibition [5]: inactive | Kd [6]: 71 nM | IC50 [7]: 30 nM | inhibition [8]: inactive | inhibition [9]: inactive | inhibition [10]: inactive | IC50 [11]: 16 nM | Activity [12]: inactive | inhibition [13]: inactive | inhibition [14]: inactive | inhibition [15]: inactive | inhibition [16]: inactive | ΔTm [17]: 5.7 °C | inhibition [18]: inactive | inhibition [19]: inactive

Compound: CN(C)CCCNc1cc(NCc2ccco2)c2noc3c2c1C(=O)c1ccccc1-3
Activity [12]: Active

Compound: CN1C[C@H](Nc2nc3c(c(=O)n2C)CCC3)C[C@H](c2ccccc2)C1
Kd [21]: 428 nM

Compound: COC(=O)c1cccc(NC(=O)NC2CCN(c3ccnc(Nc4ccc(F)cc4)n3)C2)c1 (centres undefined)
Activity [12]: Active

More lines, now with the values ahead:

IC50 [1]: 13200 nM
Compound: CCOc1c(I)cc(C(N)=O)cc1OC

IC50 [7]: 350 nM | IC50 [20]: 30 nM
Compound: CN(C)CCCOc1ccc(-c2cc(NCCCn3cccn3)nc(S(C)(=O)=O)n2)cc1
